Results published in BindingDB's records for doi:10.1021/acs.jmedchem.9b01663 (Dalian University of Technology, 2020).

Assay: Inhibition of CRM1 in human HCT-15 cells assessed as reduction in cell viability incubated for 24 hrs

[O-][S@@+](/C=C/CCN=C=S)c1cc(C(F)(F)F)cc(C(F)(F)F)c1
IC50: 151 nM
